This note sets out measurements from patent publication US11964973B2 (priority 2019, dated 2024).

The subject of one test is naïve human CD8 T cells. The test is described as follows: CellTiter-Glo CD8 T cell proliferation assay. The format is cell-based. The conditions noted are these: read-out: CD8 GLO Normalized EC50. How it is done: Assay 4: CellTiter-Glo CD8 T Cell Proliferation Assay
Frozen naïve human CD8 T cells were thawed in RPMI+10% FBS, incubated for 2 h in 37° C., and counted. The 384-well tissue culture plate was coated overnight at 4° C. with 20 μl anti-human CD3 at 0.1 μg/mL in plain RPMI, which was removed off the plate before 20 k/40 μL CD8 T cells with 0.5 μg/ml soluble anti-human CD28 were added to each well. The compounds were echoed to the cell plate immediately after the cells were plated. After 72 h incubation at 37° C. incubator, 10 μL CellTiter-glo reagent (Promega catalog number G7570) was added to each well. The plate was vigorously shaken for 5 mins, incubated at room temperature for another 15 mins and read on Envision for CD8 T cell proliferation. In analysis, 0.1 μg/mL anti-CD3 and 0.5 μg/mL anti-CD28 stimulated CD8 T cell signal was background.
In general terms: Cellular ATP, detected with luciferase, serves as a proxy for viable cell number.

For another test, the target named is DGKα (Homo sapiens (Human), UniProt P23743). The test is described as follows: biochemical. The class given is biochemical. Particulars: liposome (LIPGLO) assay; read-out: DGKα LIPGLO IC50.
Chain of DGKα (P23743 whole entry, looked up): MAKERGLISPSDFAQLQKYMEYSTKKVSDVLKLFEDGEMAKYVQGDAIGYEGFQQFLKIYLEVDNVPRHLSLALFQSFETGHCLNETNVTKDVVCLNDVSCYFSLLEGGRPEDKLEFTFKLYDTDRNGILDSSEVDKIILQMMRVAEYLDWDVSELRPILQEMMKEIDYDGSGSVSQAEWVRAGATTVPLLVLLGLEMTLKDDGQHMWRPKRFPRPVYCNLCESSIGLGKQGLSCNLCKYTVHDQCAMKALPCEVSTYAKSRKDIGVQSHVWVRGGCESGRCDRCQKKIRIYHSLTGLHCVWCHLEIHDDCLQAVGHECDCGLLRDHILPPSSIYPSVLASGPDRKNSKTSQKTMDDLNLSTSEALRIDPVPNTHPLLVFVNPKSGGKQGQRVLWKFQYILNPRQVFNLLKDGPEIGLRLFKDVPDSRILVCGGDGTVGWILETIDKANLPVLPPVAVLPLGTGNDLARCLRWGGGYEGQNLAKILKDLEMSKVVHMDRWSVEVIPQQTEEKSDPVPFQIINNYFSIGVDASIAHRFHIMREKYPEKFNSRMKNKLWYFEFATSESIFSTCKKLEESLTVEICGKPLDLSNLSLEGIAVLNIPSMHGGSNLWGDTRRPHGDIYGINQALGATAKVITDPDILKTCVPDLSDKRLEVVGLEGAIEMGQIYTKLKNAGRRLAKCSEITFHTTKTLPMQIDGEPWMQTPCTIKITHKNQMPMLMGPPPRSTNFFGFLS
In test [1] the test system is OT-1 CD8+ T cells with SIINFEKL-loaded MC38 tumor cells. Description: Murine cytotoxic T lymphocyte assay (IFN-γ). The class given is cell-based, mouse. The conditions noted are these: murine cytotoxic T lymphocyte, IFN-γ, read-out: msCTL INFg IC50. The text has this:
Assay 6: Murine Cytotoxic T Lymphocyte Assay
An antigen-specific cytolytic T-cell (CTL) assay was developed to evaluate functionally the ability of DGKα and DGKζ inhibitors to enhance effector T cell mediated tumor cell killing activity. CD8+ T-cells isolated from the OT-1 transgenic mouse recognize antigen presenting cells, MC38, that present the ovalbumin derived peptide […]. Recognition of the cognate antigen initiates the cytolytic activity of the OT-1 antigen-specific CD8+ T cells.
Functional CTL cells were generated as follows: OT-1 splenocytes from 8-12 week old mice were isolated and expanded in the presence of the […] peptide at 1 μg/mL and mIL2 at 10 U/mL. After three days, fresh media with […] was added. On day 5 of the expansion, the CD8+ T cells were isolated and ready for use. Activated CTL cells may be stored frozen for 6 months. Separately, one million MC38 tumor cells were pulsed with 1 μg/mL of […]-OVA peptide for 3 hours at 37° C. The cells were washed (3×) with fresh media to remove excess peptide. Finally, CTL cells that were pretreated with DGK inhibitors for 1 hour in a 96-well U bottom plate were combined with the antigen loaded MC38 tumor cells at a 1:10 ratio. The cells were then spun at 700 rpm for 5 min and placed in an incubator overnight at 37° C. After 24 hours, the supernatant was collected for analysis of IFN-γ cytokine levels by AlphaLisa purchased from Perkin Elmer.

The next test has as its target human DGKζ (Homo sapiens (Human), UniProt Q13574). The test is described as follows: biochemical. The class given is biochemical. The conditions noted are these: read-out: DGKζ LIPGLO IC50.
For test [2], the system named is Human venous whole blood (IFN-γ). The test is described as follows: Human whole blood IFN-γ assay. The format is cell-based. Particulars: Homo sapiens, 24 h, human whole blood, anti-CD3 plus anti-CD28, 24 hours; read-out: INFg Whole Blood Normalized Agonist EC50. How it is done:
Assay 10: Human Whole Blood IFN-γ Assay
Human venous whole blood (22.5 μL per well), obtained from healthy donors, was pre-treated with compounds for one hour at 37° C. in a humidified 95% air/5% CO2 incubator. The blood was stimulated with 2.5 μL anti-human CD3 and anti-CD28 mAb at a final concentration of 1 μg/mL each for 24 hours at 37° C. IFN-γ in the supernatants was measured using AlphLISA kit (Cat #AL217).

pEC50, pIC50: −log10 of the molar value. Read-outs that look alike come from different tables or passages of the source.

Chain of human DGKζ (Q13574 whole entry, looked up): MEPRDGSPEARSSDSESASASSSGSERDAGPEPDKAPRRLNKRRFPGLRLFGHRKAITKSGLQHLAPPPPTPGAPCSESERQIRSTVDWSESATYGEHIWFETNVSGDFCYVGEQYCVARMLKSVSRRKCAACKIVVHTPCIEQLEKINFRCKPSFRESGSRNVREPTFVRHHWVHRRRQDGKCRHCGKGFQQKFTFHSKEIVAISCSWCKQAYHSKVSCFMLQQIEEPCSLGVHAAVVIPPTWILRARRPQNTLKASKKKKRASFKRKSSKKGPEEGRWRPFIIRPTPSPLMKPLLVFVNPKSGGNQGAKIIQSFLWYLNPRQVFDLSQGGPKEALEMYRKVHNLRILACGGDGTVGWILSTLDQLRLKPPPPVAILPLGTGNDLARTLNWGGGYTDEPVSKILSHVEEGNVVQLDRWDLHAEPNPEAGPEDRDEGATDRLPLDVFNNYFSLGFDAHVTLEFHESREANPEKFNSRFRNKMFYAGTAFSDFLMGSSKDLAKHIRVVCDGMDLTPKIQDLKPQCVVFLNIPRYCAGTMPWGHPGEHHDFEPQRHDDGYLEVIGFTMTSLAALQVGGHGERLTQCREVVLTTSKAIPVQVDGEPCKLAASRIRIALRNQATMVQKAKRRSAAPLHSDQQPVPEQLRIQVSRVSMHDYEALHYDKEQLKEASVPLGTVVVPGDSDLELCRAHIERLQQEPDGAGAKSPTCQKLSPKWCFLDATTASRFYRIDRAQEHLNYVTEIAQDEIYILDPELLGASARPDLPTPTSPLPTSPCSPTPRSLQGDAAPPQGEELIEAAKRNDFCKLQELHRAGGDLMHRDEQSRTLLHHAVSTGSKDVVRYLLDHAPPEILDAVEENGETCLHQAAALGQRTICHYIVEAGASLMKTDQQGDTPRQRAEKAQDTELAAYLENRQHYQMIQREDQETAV

For the molecule `Cn1c(=O)c(C#N)c(N2CCC(Oc3ccc(C#N)c(Cl)c3)CC2)c2nc(Cl)ccc21` [Example 38, 6-chloro-4-(4-(3-chloro-4-cyanophenoxy)piperidin-1-yl)-1-methyl-2-oxo-1,2-dihydro-1,5-naphthyridine-3-carbonitrile], in the test on naïve human CD8 T cells (Homo sapiens), the negative-log EC50 (pEC50) is 5.80. Besides, the negative logarithm of the IC50 (pIC50) at DGKα is 5.74; in test [1] (Mus musculus, MC-38), 5.00; at human DGKζ (liposome (LIPGLO) assay) it was 5.05.

In the case of `Cc1cc(OC(F)(F)F)ccc1OC1CCN(c2c(C#N)c(=O)n(C)c3ccc(Cl)nc23)CC1` [Example 29, -chloro-1-methyl-4-(4-(2-methyl-4-(trifluoromethoxy)phenoxy)piperidin-1-yl)-2-oxo-1,2-dihydro-1,5-naphthyridine-3-carbonitrile], the negative logarithm of the EC50 (pEC50) in the test with naïve human CD8 T cells is 5.23. Further, the values for the negative logarithm of the IC50 (pIC50) (on DGKα; in test [1]; at human DGKζ) were 5.42, 5.00 and 3.62, respectively.

Regarding `Cc1ccc(OC2CCN(c3c(C#N)c(=O)n(C)c4ccc(Cl)nc34)CC2)cc1Cl` [Example 40, 6-chloro-4-(4-(3-chloro-4-methylphenoxy)piperidin-1-yl)-1-methyl-2-oxo-1,2-dihydro-1,5-naphthyridine-3-carbonitrile], the pEC50 in the test with naïve human CD8 T cells (Homo sapiens) was 5.92. Further, the pIC50 at DGKα is 6.13; in test [1] (Mus musculus, MC-38), 5.00; at human DGKζ (liposome (LIPGLO) assay), 5.05.

Take `Cn1c(=O)c(C#N)c(N2CCC(Oc3cc(F)ccc3Cl)CC2)c2nc(Cl)ccc21` [Example 23, 6-chloro-4-(4-(2-chloro-5-fluorophenoxy)piperidin-1-yl)-1-methyl-2-oxo-1,2-dihydro-1,5-naphthyridine-3-carbonitrile]: the pIC50 on DGKα was 4.18; in test [1] (Mus musculus, MC-38), 5.00; at human DGKζ (liposome (LIPGLO) assay), 4.24.

Consider `CN(C)C(=O)c1ccc(OC2CCN(c3c(C#N)c(=O)n(C)c4ccc(Cl)nc34)CC2)cc1` [Example 25, 4-((1-(6-chloro-3-cyano-1-methyl-2-oxo-1,2-dihydro-1,5-naphthyridin-4-yl)piperidin-4-yl)oxy)-N,N-dimethylbenzamide], for which the negative logarithm of the EC50 (pEC50) in the test on naïve human CD8 T cells (Homo sapiens) was 5.92. The pIC50 on DGKα is 6.14; in test [1] (Mus musculus, MC-38), 5.00; on human DGKζ (liposome (LIPGLO) assay) it was 3.62.

As to `Cc1cc(Br)ccc1OC1CCN(c2c(C#N)c(=O)n(C)c3ccc(Cl)nc23)CC1` [Example 26, 4-(4-(4-bromo-2-methylphenoxy)piperidin-1-yl)-6-chloro-1-methyl-2-oxo-1,2-dihydro-1,5-naphthyridine-3-carbonitrile], the negative logarithm of the EC50 (pEC50) with naïve human CD8 T cells (Homo sapiens) was 5.57. The negative logarithm of the IC50 (pIC50) in test [1] (Mus musculus, MC-38) is 5.00.

As for `Cn1c(=O)c(C#N)c(N2CCC(Oc3ccccc3C#N)CC2)c2nc(Cl)ccc21` [Example 43, 6-chloro-4-(4-(2-cyanophenoxy)piperidin-1-yl)-1-methyl-2-oxo-1,2-dihydro-1,5-naphthyridine-3-carbonitrile], the negative logarithm of the EC50 (pEC50) in the test on naïve human CD8 T cells (Homo sapiens) is 5.00. Moreover, the negative-log IC50 (pIC50) on DGKα is 5.82; in test [1] (Mus musculus, MC-38), 5.00; at human DGKζ (liposome (LIPGLO) assay) it was 4.57.

For the molecule `Cn1c(=O)c(C#N)c(N2CCC(Oc3ccc(C#N)cc3)CC2)c2nc(Cl)ccc21` [Example 32, 6-chloro-4-(4-(4-cyanophenoxy)piperidin-1-yl)-1-methyl-2-oxo-1,2-dihydro-1,5-naphthyridine-3-carbonitrile], the pIC50 in test [1] (Mus musculus, MC-38) is 5.00.

As for `Cn1c(=O)c(C#N)c(N2CCC(Oc3ccc(OC(F)(F)F)cc3)CC2)c2nc(Cl)ccc21` [Example 19, 6-chloro-1-methyl-2-oxo-4-(4-(4-(trifluoromethoxy)phenoxy)piperidin-1-yl)-1,2-dihydro-1,5-naphthyridine-3-carbonitrile], the pEC50 in test [2] is 5.00; with naïve human CD8 T cells (Homo sapiens), 6.55. Moreover, the pIC50 at DGKα is 6.49; in test [1] (Mus musculus, MC-38) it was 6.68.

For `Cn1c(=O)c(C#N)c(N2CCC(Oc3cccc(F)c3)CC2)c2nc(Cl)ccc21` [Example 45, 6-chloro-4-(4-(3-fluorophenoxy)piperidin-1-yl)-1-methyl-2-oxo-1,2-dihydro-1,5-naphthyridine-3-carbonitrile], the pEC50 in the test with naïve human CD8 T cells (Homo sapiens) is 7.01. The negative logarithm of the IC50 (pIC50) in test [1] (Mus musculus, MC-38) is 5.00.

Take `Cn1c(=O)c(C#N)c(N2CCC(Oc3ccc(OC(F)(F)F)cc3Cl)CC2)c2nc(Cl)ccc21` [Example 41, 6-chloro-4-(4-(2-chloro-4-(trifluoromethoxy)phenoxy)piperidin-1-yl)-1-methyl-2-oxo-1,2-dihydro-1,5-naphthyridine-3-carbonitrile]: in the test on naïve human CD8 T cells (Homo sapiens), the pEC50 was 6.68. Further, the pIC50 at DGKα was 5.96; in test [1] (Mus musculus, MC-38), 5.00; on human DGKζ (liposome (LIPGLO) assay), 4.64.

`COc1cc(OC2CCN(c3c(C#N)c(=O)n(C)c4ccc(Cl)nc34)CC2)ccc1Cl` [Example 39, 6-chloro-4-(4-(4-chloro-3-methoxyphenoxy)piperidin-1-yl)-1-methyl-2-oxo-1,2-dihydro-1,5-naphthyridine-3-carbonitrile]: in the test on naïve human CD8 T cells (Homo sapiens), the pEC50 is 6.89. The pIC50 on DGKα is 6.46; in test [1] (Mus musculus, MC-38), 5.43; on human DGKζ (liposome (LIPGLO) assay), 4.85.

With `Cn1c(=O)c(C#N)c(N2CCC(Oc3ccc(Cl)cc3)CC2)c2nc(Cl)ccc21` [Example 16, 6-chloro-4-(4-(4-chlorophenoxy)piperidin-1-yl)-1-methyl-2-oxo-1,2-dihydro-1,5-naphthyridine-3-carbonitrile], the pEC50 in test [2] is 5.00; with naïve human CD8 T cells (Homo sapiens) it was 7.03. The pIC50 at DGKα was 5.77; in test [1] (Mus musculus, MC-38) it was 5.96.

As to `Cn1c(=O)c(C#N)c(N2CCC(Oc3ccc(C(F)(F)F)cc3)CC2)c2nc(Cl)ccc21` [Example 30, 6-chloro-1-methyl-2-oxo-4-(4-(4-(trifluoromethyl)phenoxy)piperidin-1-yl)-1,2-dihydro-1,5-naphthyridine-3-carbonitrile], the negative-log EC50 (pEC50) with naïve human CD8 T cells (Homo sapiens) was 5.00. Further, the negative-log IC50 (pIC50) on DGKα was 6.01; in test [1] (Mus musculus, MC-38), 5.46; at human DGKζ (liposome (LIPGLO) assay) it was 3.62.

Take `Cn1c(=O)c(C#N)c(N2CCC(Oc3ccccc3OC(F)(F)F)CC2)c2nc(Cl)ccc21` [Example 33, 6-chloro-1-methyl-2-oxo-4-(4-(2-(trifluoromethoxy)phenoxy)piperidin-1-yl)-1,2-dihydro-1,5-naphthyridine-3-carbonitrile]: the pEC50 in the test with naïve human CD8 T cells (Homo sapiens) was 5.00. Moreover, the pIC50 on DGKα is 5.55; in test [1] (Mus musculus, MC-38), 5.42; at human DGKζ (liposome (LIPGLO) assay) it was 3.62.

For the molecule `Cn1c(=O)c(C#N)c(N2CCC(Oc3cccc(C#N)c3)CC2)c2nc(Cl)ccc21` [Example 34, 6-chloro-4-(4-(3-cyanophenoxy)piperidin-1-yl)-1-methyl-2-oxo-1,2-dihydro-1,5-naphthyridine-3-carbonitrile], in the test on naïve human CD8 T cells (Homo sapiens), the pEC50 was 5.39. Moreover, the pIC50 on DGKα is 5.96; in test [1] (Mus musculus, MC-38) it was 5.07; on human DGKζ (liposome (LIPGLO) assay), 5.05.

For `Cc1cc(F)cc(OC2CCN(c3c(C#N)c(=O)n(C)c4ccc(Cl)nc34)CC2)c1` [Example 28], the negative logarithm of the IC50 (pIC50) was 5.80 at DGKα, 5.00 in test [1] and 5.27 on human DGKζ (liposome (LIPGLO) assay).

`CC(C)c1ccc(OC2CCN(c3c(C#N)c(=O)n(C)c4ccc(Cl)nc34)CC2)cc1` [Example 37, 6-chloro-4-(4-(4-isopropylphenoxy)piperidin-1-yl)-1-methyl-2-oxo-1,2-dihydro-1,5-naphthyridine-3-carbonitrile]: in the test on naïve human CD8 T cells (Homo sapiens), the pEC50 was 5.96. Besides, the pIC50 on DGKα was 6.31; on human DGKζ (liposome (LIPGLO) assay), 3.62.

`Cn1c(=O)c(C#N)c(N2CCC(Oc3cccc(Cl)c3)CC2)c2nc(Cl)ccc21` [Example 27, 6-chloro-4-(4-(3-chlorophenoxy)piperidin-1-yl)-1-methyl-2-oxo-1,2-dihydro-1,5-naphthyridine-3-carbonitrile]: the pEC50 in the test with naïve human CD8 T cells (Homo sapiens) was 7.14. Moreover, the pIC50 in test [1] (Mus musculus, MC-38) is 5.13.

A word on the pEC50: it is −log10 of the EC50, conventionally taken in molar units. Usually pIC50 stands for the IC50 on a negative log10 scale, so that one unit is a factor of ten.
